The values below come from ChEMBL document CHEMBL1201862, “PubChem BioAssay data set” (2004).

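How tested: cells in 96-well plates exposed to compound for 48 hours at five concentrations. GI50 = concentration required for 50% inhibition of growth.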 Calls of active or inactive are those of the source. Cut-off read from the data, not from the text of the source: active = GI50 up to about 1.1 µM and inactive = higher.

Holding throughout (test): growth of human tumour cells (NCI), 48 h
In experiment [1] the test system is ACHN.
The test system of experiment [2] is UACC-62.
Experiment [3] relates to NCI-H522.
Experiment [4] relates to CCRF-CEM.
Experiment [5] concerns M14.
Experiment [6] concerns U-251.
Experiment [7] concerns CAKI-1.
In experiment [8] the test system is MOLT-4.
In experiment [9] the test system is HOP-62.
Experiment [10] has as its system SF-539.
For experiment [11], the system named is RXF 393.
The subject of experiment [12] is MDA-MB-231.
Experiment [13] relates to TK-10.
The test system of experiment [14] is SF-268.
Experiment [15] relates to UO-31.
Experiment [16] relates to SF-295.
Experiment [17] deals with EKVX.
Experiment [18] relates to BT-549.
The subject of experiment [19] is NCI/ADR-RES.
Experiment [20] relates to HL-60.

As for `CCOC(=O)C1C2CCC1CC(=NNc1ccc([N+](=O)[O-])cc1[N+](=O)[O-])C2` (stereo unspecified), the GI50 in experiment [1], in experiment [2], in experiment [3], in experiment [4], in experiment [5] and in experiment [6] was > 50 µM (inactive) each time. Also, the GI50 in [7] was 14.8 µM (inactive); in experiment [8], 31.4 µM (inactive); in experiment [9], > 50 µM (inactive); in experiment [10], > 50 µM (inactive); in experiment [11], > 50 µM (inactive); in [12], > 50 µM (inactive). Also, the GI50 is > 50 µM (inactive) in experiment [13]; > 50 µM (inactive) in experiment [14]; > 50 µM (inactive) in [15]; 8.99 µM (inactive) in [16]; 30.3 µM (inactive) in [17]; > 50 µM (inactive) in experiment [18]. Also, in experiment [19], the GI50 was 4.38 µM (inactive).
With `c1csc(-c2cc(-c3cccs3)c(-c3cccs3)s2)c1`, the GI50 is > 100 µM (inactive) in experiment [1]; 54.2 µM (inactive) in experiment [2]; 69.3 µM (inactive) in [3]; 35.6 µM (inactive) in experiment [4]; 47 µM (inactive) in experiment [5]; 75.5 µM (inactive) in experiment [6]. The GI50 in experiment [7] was > 100 µM (inactive); in experiment [8] it was 36.1 µM (inactive); in [9], > 100 µM (inactive); in experiment [10], > 100 µM (inactive); in experiment [11] it was 61.5 µM (inactive); in experiment [12], 56.1 µM (inactive). The GI50 in experiment [13] was > 100 µM (inactive); in experiment [14], > 100 µM (inactive); in experiment [15] it was > 100 µM (inactive); in [16], > 100 µM (inactive); in experiment [17], 55.8 µM (inactive); in experiment [18], > 100 µM (inactive). Also, the GI50 in experiment [19] was > 100 µM (inactive).
Turning to `Cc1cc2[n-][n+]3ncc(-c4ccccc4)n3c2cc1[N+](=O)[O-]`, the GI50 in experiment [1], in experiment [2], in experiment [3], in experiment [4], in [6] and in experiment [7] was > 100 µM (inactive) throughout. Besides, the GI50 in experiment [8], in [9], in experiment [10], in experiment [11], in experiment [12] and in experiment [13] was > 100 µM (inactive) throughout. For the same compound, the GI50 in experiment [20], in experiment [15], in experiment [16], in experiment [17] and in [18] was > 100 µM (inactive) in each case.
Take `NCCSc1nc2ccccc2c(=O)n1-c1ccccc1`: the GI50 in experiment [1] was 21.6 µM (inactive); in experiment [2] it was 26.4 µM (inactive); in experiment [3] it was 30.8 µM (inactive); in [4] it was 45.7 µM (inactive); in experiment [5] it was 53.8 µM (inactive); in experiment [6], 34.4 µM (inactive). Also, the GI50 in experiment [7] is 90.6 µM (inactive); in experiment [8] it was > 10 µM (inactive); in [9], 61.7 µM (inactive); in experiment [10] it was 32.7 µM (inactive); in experiment [12], > 100 µM (inactive); in experiment [13], 45.5 µM (inactive). The GI50 in [20] is 32.8 µM (inactive); in experiment [15], 24.4 µM (inactive); in experiment [16], 28.2 µM (inactive); in experiment [17] it was > 100 µM (inactive); in [18], 27.2 µM (inactive); in experiment [19], 68.9 µM (inactive).
On to `O=C1c2ccccc2C(=O)c2sc(Nc3ccc([N+](=O)[O-])cc3)nc21`, for which the GI50 in experiment [1] was 2.99 µM (inactive); in experiment [2], 3.08 µM (inactive); in [3], 2.55 µM (inactive); in experiment [4] it was 1.97 µM (inactive); in experiment [5], 2.54 µM (inactive); in experiment [6], 3.85 µM (inactive). Moreover, the GI50 in experiment [7] is 4.25 µM (inactive); in [8], 1.92 µM (inactive); in experiment [9], 13 µM (inactive); in [10] it was 7.91 µM (inactive); in [11] it was 5.16 µM (inactive); in experiment [12], 2.3 µM (inactive). For the same compound, the GI50 in [13] is 12.2 µM (inactive); in experiment [20] it was 0.984 µM (active); in [14], 6.93 µM (inactive); in [15] it was 3.87 µM (inactive); in [16], 11.8 µM (inactive); in [17], 14.7 µM (inactive). The GI50 in experiment [18] is 14.3 µM (inactive).
As to `N#Cc1c(N)c(-c2ccc(Cl)cc2)c(F)c2ccccc12`, the GI50 in [1] is > 100 µM (inactive); in experiment [2] it was > 100 µM (inactive); in [3] it was > 100 µM (inactive); in [5], > 100 µM (inactive); in experiment [6] it was 96.4 µM (inactive); in experiment [7], > 100 µM (inactive). Besides, the GI50 in [9] is > 100 µM (inactive); in [10], > 100 µM (inactive); in [11], 18.8 µM (inactive); in experiment [12], 66.2 µM (inactive); in [13], > 100 µM (inactive); in experiment [14] it was 9.82 µM (inactive). Further, the GI50 was 3.2 µM (inactive) in [15]; > 100 µM (inactive) in experiment [16]; 7 µM (inactive) in experiment [17]; > 100 µM (inactive) in experiment [18]; > 100 µM (inactive) in experiment [19].
Regarding `C=CCOn1c(C=C)nc2ccc(C)cc21`, the GI50 is 20.1 µM (inactive) in experiment [1]; 13.6 µM (inactive) in experiment [2]; 15.5 µM (inactive) in experiment [3]; 2.44 µM (inactive) in experiment [4]; 16.5 µM (inactive) in experiment [5]; 12.5 µM (inactive) in experiment [6]. Further, the GI50 in experiment [7] is 20.4 µM (inactive); in [8], 8.18 µM (inactive); in experiment [9] it was 17.9 µM (inactive); in [12], 16.7 µM (inactive); in experiment [13], 13.6 µM (inactive); in experiment [20] it was 5.01 µM (inactive). The GI50 was 24 µM (inactive) in experiment [14]; 13.6 µM (inactive) in [15]; 25.6 µM (inactive) in experiment [16]; 19.4 µM (inactive) in [17]; 19.7 µM (inactive) in experiment [18]; 25.9 µM (inactive) in experiment [19].
In the case of `O=C(c1cc(Cl)cc(Cl)c1)N1CCN(C(=O)c2cc(Cl)cc(Cl)c2)C1=S`, the GI50 in [1] is 16 µM (inactive); in experiment [2], 9.91 µM (inactive); in experiment [3], 4.38 µM (inactive); in experiment [4], 2.25 µM (inactive); in experiment [5], 13.2 µM (inactive); in [6], 13.1 µM (inactive). Further, the GI50 in [7] was 11.9 µM (inactive); in experiment [8], 3.94 µM (inactive); in [9], 14.8 µM (inactive); in experiment [10], 7.28 µM (inactive); in experiment [11] it was 11.8 µM (inactive); in experiment [12], 15.7 µM (inactive). The GI50 was 10.7 µM (inactive) in experiment [13]; 3.31 µM (inactive) in experiment [20]; 13.1 µM (inactive) in [14]; 2.31 µM (inactive) in experiment [15]; 20.3 µM (inactive) in experiment [16]; 16.8 µM (inactive) in experiment [17]. The GI50 in [18] was 24.9 µM (inactive).
